Laboratory results: patent US8741299B2, “Method for treating pathologies associated with hypoxia using MIF inhibitors” (The Feinstein Institute for Medical Research, priority 2011, dated 2014)
Entries after “also recorded” stand apart in the source; their conditions may differ.

Assays:
mouse brain = assay: MicroPET 18F-FDG uptake in the brain of hypoxic mice; assay type: in vivo
Description: MicroPET scanning MicroPET scanning can be conducted using an appropriate system, such as Siemen's Inveon. The Inveon is a dedicated small animal positron emission tomography (PET) scanner housed in the Feinstein Institute for Medical Research. This scanner is an ultra-high resolution tomography that includes a built-in transmission source used for the quantitative assessment of radiotracer binding. The use of ^18FDG is preferred.
Scanning methods: All animals being scanned are housed in the Center for Comparative Physiology, within the Feinstein Institute. Animals receive an intraperitoneal (i.p.) injection of ^18FDG (between 1-2 mCi). […] Significant differences in absolute and region-of-interest to whole-brain relative metabolic glucose uptake are analyzed using student t-tests and repeated measures ANOVA.
Further developing these studies, it is herein disclosed that inhibition of MIF prevented altered 2-deoxy-2-(^18F)fluoro-D-glucose (^18F-FDG) uptake in the brain of hypoxic mice (FIG. 8). […] In this study, a standardized uptake value (SUV) (56) was used, a simple semi-quantitative index, calculated by measuring the activity concentration in a region of interest (ROI) during a short-duration (10 min) static scan acquired 60 min after injection and then normalized for the injected dose or weight of the animal. […]

[1] = system: primary lung fibroblasts (mif-/-); assay: Proliferation of primary mif-/- lung fibroblasts in hypoxia with conditioned medium from hypoxic mif+/+ cells; assay type: cell-based, mouse; details: 1% oxygen; vs carrier DMSO
Description: Primary lung fibroblasts from MIF knockout (mif−/−) or their counterpart wild type C57BL6 mice (mif+/+) were established by using outgrowth from lung explants (36). Briefly, mouse lungs were removed using aseptic technique, carefully dissected free of connective tissue and fat, and cut into small pieces (<1 mm). These lung tissue pieces were cultured in a dish containing EMEM, 10% FBS, and 1% penicillin/streptomycin, at 37° C., 5% CO2 in air. Medium was changed twice a week. After about two weeks, fibroblasts had reached approximately 80% confluence. The fibroblasts were removed by trypsin and filtered using a sterilized 100-μm nylon cell strainer (Falcon) to remove any remaining tissue pieces. […]
Cell proliferation assessments: 5-bromo-2-deoxyuridine (BrdU) incorporation measured by a commercially available kit (Calbiochem, EMD Chemical Inc., Gibbstown, N.J.) was used to quantify the fibroblast proliferation, BrdU is incorporated into the newly synthesized DNA of replicating cells (during the S phase of the cell cycle). […] BrdU incorporated in newly synthesized DNA was detected with a BrdU antibody using chemiluminescence for quantification. […]
To further examine the role of MIF in hypoxia-induced fibroblast proliferation, the ability of primary lung fibroblasts (mif^−/− and mir^+/+) cultured under normoxic and hypoxic conditions for 24 hrs, was assessed. […]

mice = assay: Clock maze task (spatial working memory) in hypoxic mice; assay type: in vivo, mouse; details: hypoxia, ISO-92 delivered to the dorsal hippocampus via osmotic pumps, n=4
Description: Clock maze: A navigational test is used to measure spatial working memory, modified from Deacon and Rawlins (2002). The apparatus (termed “clock maze”) is a circular base platform (diameter, 85 cm) surrounded by a clear wall (30 cm high), sealed to the base by aquarium sealant to make it waterproof. Cold water (20° C.±1° C.) is added to a depth of 2 cm, sufficient to wet the underside of the belly of mice. The perimeter wall is pierced by 12 holes, 4 cm in diameter, arranged equidistantly around the circumference so that they are 23 cm apart. The lower edge of each hole is 3 cm above the maze floor, that is, at mouse head level. Eleven of these tubes were sealed with black plugs, flush with the internal pool wall surface; one is open and led to an escape pipe, which is 4 cm in diameter, made of black flexible plastic. Thus, from within the clock maze, the true exit looks similar to the decoys, even to the human eye. […] The animal is placed facing one of the long sides in a semi-random fashion (not more than 3 consecutive times the same way) and the time taken to enter the open tube was recorded by software (Ethovision). […] The latency to reach the target is recorded by software (Ethovision) with a maximum of 60 sec for each trial. […]
The navigational test that measured spatial working memory was modified from Deacon and Rawlins (2002). […]

CCL-210 cells = assay: Lactate dehydrogenase release into the medium of treated cells (cytotoxicity); assay type: cell-based, human; details: at the concentration used (100 μM elsewhere in the source), data not shown
[2] = system: Human lung fibroblasts (CCL-210); assay: Hypoxia-induced proliferation of human lung fibroblasts (BrdU incorporation, cell counts); assay type: cell-based
Description: Cell culture studies: Human lung fibroblasts (CCL-210) were purchased from American Type Culture Collection (ATCC, Manassas, Va.). Cells were cultured in Eagle Minimum Essential Medium (EMEM) (ATCC, Manassas, Va.) with 10% fetal bovine serum (FBS) at 37′C, 5% CO2. The cells were subcultured using standard procedures and were used for experiment during passages 3 to 10.
Cell proliferation assessments: 5-bromo-2-deoxyuridine (BrdU) incorporation measured by a commercially available kit (Calbiochem, EMD Chemical Inc., Gibbstown, N.J.) was used to quantify the fibroblast proliferation, BrdU is incorporated into the newly synthesized DNA of replicating cells (during the S phase of the cell cycle). The assay was performed according to the manufacturer's instructions. […] BrdU incorporated in newly synthesized DNA was detected with a BrdU antibody using chemiluminescence for quantification. […]
Hypoxia in vitro: A modular incubator chamber (Billups-Rothenberg Inc., Del Mar, Calif.) was used for the cell hypoxia studies. To induce hypoxia, the chamber was tightly closed and flushed with a gas mixture consisting of 95% nitrogen and 5% CO2 until the desired ambient oxygen concentration of 1% was reached as measured using an oxygen sensor (BioSpherix, Lacona, N.Y.). […]
Cell proliferation, under both normoxic and hypoxic conditions, was then determined using the methods described above.

C57BL6 mice = assay: Mouse hypoxia model of pulmonary vascular remodeling and hypertension; assay type: in vivo
Description: Hypoxia in vivo: C57BL6 mice (male, 8˜10 weeks old) were purchased from Taconic Farms Inc. (Hudson, N.Y.). All the animals were housed in a pathogen-free environment, under standard light and dark cycles, with free access to food and water until they were used for the experiments. All experiments involving animals were reviewed and approved by Institutional Animal Care and Use Committee of The Feinstein Institute for Medical Research. An animal hypoxia chamber system (BioSpherix, Lacona, N.Y.) was used for the in vivo studies. […] Mice were randomly divided into 4 groups and treated with normoxia, or hypoxia for 3, 10, or 42 days. At the time of euthanasia, animals were anesthetized with isoflurane and 100% oxygen. A 26 gauge needle connected to a transducer was introduced into the right ventricular trans-diaphragmatically. The right ventricular (RV) pressure was measured and recorded using a computerized hemodynamic recording system (HAEMODYN, Harvard Apparatus, Mass.). After the RV pressure measurement, blood was taken from the RV and plasma was stored in −80° C. for MIF measurement. The mice were then euthanized by exsanguination. The hearts were removed, dissected and weighed. The heart weights were expressed as a ratio of the weight of the right ventricle to the weight of the left ventricle+septum (RV/S+LV). The lung was also collected; the left side was used for measure MIF mRNA expression, and the right side fixed, at inflation, in 4% paraformaldehyde for lung vascular histology study. […] Immediately after sub-cutaneous pump implantation on the dorsum of the animals, the mice were put into hypoxia chamber undergoing 10% normobaric hypoxia for 10 days or 21 days. At the indicated times, the RV pressure, heart weight (RV/S+LV), and vascular changes were determined in each group using the methods described above. Vascular wall thickness: Lung tissues were immunostained using anti α-smooth muscle actin (α-SMA) antibody (Abcam Inc, Cambridge Mass.) to reveal the muscular layer of the vessel wall. External diameter (ED) and internal diameter (ID) of 50 alveolar vessels (with ED of 40 to 100 μm) per animal were determined and recorded, by an independent investigator blinded to the sample's origin. The total wall thickness (WT) was measured as the mean distance between the internal and the external diameter. The percentage wall thickness (WT %) was calculated by the formula: WT %=2×WT/ED×100%. (38).

[3] = 1.8 mg/kg/day s.c. osmotic pump, 10% oxygen, 10 or 21 days

Compound: CC(C)(C)COC(=O)CC1CC(c2ccc(O)c(F)c2)=NO1 (stereo not drawn) [ISO-92]
- hypoxia-induced increase in brain glucose metabolism (18FDG images) (mouse brain; 10 days 10% hypoxia, ISO-92 via osmotic pump): blocked completely
- semi-quantitative 18F-FDG uptake (SUV) of specific brain regions, median value (mouse brain; 10 days hypoxia, differences not statistically significant): lower in each case
- increased proliferation of mif-/- fibroblasts induced by conditioned medium from hypoxic mif+/+ cells [1]: abrogated; also recorded: inhibitable; also recorded: inhibited
- performance in the clock maze task (working memory) (mice): completely normal performance
- cytotoxicity / lactate dehydrogenase release into culture medium (CCL-210 cells): not cytotoxic; also recorded: nor did it cause accumulation of lactate dehydrogenase
- growth of cells cultured in normoxic conditions ([2]; CCL-210, 100 μM ISO-92, normoxia): no effect
- hypoxia-induced cell proliferation ([2]; CCL-210, 1% oxygen, 24 hrs, vs vehicle DMSO): inhibited by ISO-92 in a dose-dependent manner; also recorded: able to inhibit hypoxia-driven proliferation; also recorded: inhibited proliferation in a dose-dependent manner
- right ventricle hypertrophy (RV/S+LV) (C57BL6 mice; [3]): significantly reduced
- right ventricular systolic pressure (RVSP), effect in words (C57BL6 mice; [3]): significantly reduced
- vascular wall thickness (VascularWT %) / pulmonary vascular remodeling (C57BL6 mice; [3]): significantly reduced
- right ventricular systolic pressure (C57BL6 mice; at 21 days hypoxia, normoxia 13.8±2.3, vehicle 20.2±1.4): 16.8±1.5 mm Hg
- reduction of right ventricular systolic pressures (C57BL6 mice; at 21 days hypoxia, relative to vehicle and normoxia): approximately 53%
